This series in a line: Form conversion on heating / desolvation (XRPD, FIG. 5, FIG. 8). The following applies: desolvation at 170° C. Format: physicochemical.

On to `C=CC(=O)Nc1cc(Nc2nccc(-n3ccc4cccnc43)n2)c(OC)cc1N(C)CCN(C)C.Cc1ccc(S(=O)(=O)O)cc1` [Form II, N-(5-((4-(1H-pyrrolo[2,3-b]pyridin-1-yl)pyrimidin-2-yl)amino)-2-((2-(dimethylamino)ethyl)(methyl)amino)-4-methoxyphenyl)acrylamide tosylate salt], for which the “form conversion after desolvation” value is listed as “transform to crystalline Form III”.
